Results on 14 compounds are retold here after ChEMBL document CHEMBL1129998, “Pharmacological options in the treatment of benign prostatic hyperplasia” (J Med Chem, 1997).

Assay [1] is described as follows: Dose (iv) for 20% reduction of mean blood pressure in rat (ID20) with the dose for 50% inhibition of norepinephrine-mediated contraction of proximal urethra (ID50) in cat. In kind it is functional.
Assay [2] has as its target T1, 3-oxo-5-alpha-steroid 4-dehydrogenase 2 (Homo sapiens, UniProt P31213).
T1 sequence (P31213 whole entry): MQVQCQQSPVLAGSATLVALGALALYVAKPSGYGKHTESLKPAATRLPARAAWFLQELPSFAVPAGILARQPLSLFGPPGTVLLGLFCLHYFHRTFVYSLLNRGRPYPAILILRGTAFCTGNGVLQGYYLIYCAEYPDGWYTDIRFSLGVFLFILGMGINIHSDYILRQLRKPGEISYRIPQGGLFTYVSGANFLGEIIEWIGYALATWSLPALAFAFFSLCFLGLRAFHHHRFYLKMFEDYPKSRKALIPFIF
The assay is described as follows: Inhibitory concentration on human prostatic 5-alpha reductase 2 isozyme.

For assay [3], the target named is T2, Steroid 5-alpha-reductase (Rattus norvegicus, UniProt P24008+P31214).
T2 sequence (P24008 whole entry): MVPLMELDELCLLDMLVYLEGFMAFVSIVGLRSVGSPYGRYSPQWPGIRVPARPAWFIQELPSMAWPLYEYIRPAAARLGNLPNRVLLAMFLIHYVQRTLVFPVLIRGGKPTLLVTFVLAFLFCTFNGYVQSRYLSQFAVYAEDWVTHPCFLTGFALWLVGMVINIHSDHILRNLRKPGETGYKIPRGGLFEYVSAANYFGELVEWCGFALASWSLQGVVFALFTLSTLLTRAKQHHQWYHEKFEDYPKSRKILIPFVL
T2 sequence (P31214 whole entry): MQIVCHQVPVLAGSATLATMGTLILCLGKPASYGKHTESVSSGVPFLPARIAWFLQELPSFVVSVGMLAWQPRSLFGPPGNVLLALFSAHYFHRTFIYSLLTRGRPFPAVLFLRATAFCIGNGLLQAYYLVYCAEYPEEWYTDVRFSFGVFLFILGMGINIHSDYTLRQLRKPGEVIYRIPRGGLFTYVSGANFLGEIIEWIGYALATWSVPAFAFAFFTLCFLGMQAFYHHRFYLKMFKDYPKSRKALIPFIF
Description: Apparent binding affinity on rat 5-alpha reductase isozyme. In kind it is protein assay.

Assay [4] is described as follows: Apparent binding affinity on human 5-alpha reductase isozyme.
Assay [5] can be described thus: Inhibitory concentration on human 5-alpha reductase isozyme.
In assay [6] the target is T2, Steroid 5-alpha-reductase. Description: Inhibition of rat 5-alpha reductase isozyme. In kind it is protein assay.
The target of assay [7] is T3, Alpha-1B adrenergic receptor (Rattus norvegicus, UniProt P15823).
T3 sequence (P15823 whole entry): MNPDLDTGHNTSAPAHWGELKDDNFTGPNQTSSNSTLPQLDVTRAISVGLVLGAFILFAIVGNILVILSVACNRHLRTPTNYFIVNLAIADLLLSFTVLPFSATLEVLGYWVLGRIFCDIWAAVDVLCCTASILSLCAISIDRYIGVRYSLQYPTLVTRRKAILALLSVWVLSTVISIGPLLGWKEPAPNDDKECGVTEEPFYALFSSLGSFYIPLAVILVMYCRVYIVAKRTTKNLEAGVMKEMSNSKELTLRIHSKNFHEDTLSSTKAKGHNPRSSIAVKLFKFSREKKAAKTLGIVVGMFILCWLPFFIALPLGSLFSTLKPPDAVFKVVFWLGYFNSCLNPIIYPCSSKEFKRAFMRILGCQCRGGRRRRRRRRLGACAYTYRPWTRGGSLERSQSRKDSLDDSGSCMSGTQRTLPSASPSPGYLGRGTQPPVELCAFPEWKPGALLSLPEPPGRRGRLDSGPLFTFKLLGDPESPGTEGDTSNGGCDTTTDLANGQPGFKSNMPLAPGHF
The assay is described as follows: Binding affinity was tested on CEC-pretreated rat liver Alpha-1B adrenergic receptor.

Assay [8] has as its target T4, Alpha-1A adrenergic receptor (Rattus norvegicus, UniProt P43140).
T4 sequence (P43140 whole entry): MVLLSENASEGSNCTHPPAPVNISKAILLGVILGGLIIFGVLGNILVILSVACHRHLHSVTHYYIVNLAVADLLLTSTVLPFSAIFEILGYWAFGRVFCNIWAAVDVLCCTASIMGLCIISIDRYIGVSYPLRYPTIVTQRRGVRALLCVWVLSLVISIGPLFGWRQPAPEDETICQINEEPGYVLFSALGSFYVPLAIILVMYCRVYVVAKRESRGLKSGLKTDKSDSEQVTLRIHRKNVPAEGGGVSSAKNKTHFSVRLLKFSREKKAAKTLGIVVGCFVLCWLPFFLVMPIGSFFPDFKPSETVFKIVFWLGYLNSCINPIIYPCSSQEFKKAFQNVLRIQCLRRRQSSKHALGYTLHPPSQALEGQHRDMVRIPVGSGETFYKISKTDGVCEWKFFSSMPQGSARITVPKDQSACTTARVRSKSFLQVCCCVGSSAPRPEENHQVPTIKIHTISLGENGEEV
The assay is described as follows: Binding affinity was tested on CEC-pretreated rat hippocampus Alpha-1A adrenergic receptor. The assay is classed as tissue-based.

The subject of assay [9] is Canis familiaris. The assay is described as follows: 50% reduction in agonist induced pressor response in anesthetized dog. In kind it is functional. Particulars: Canis lupus familiaris; read-out: ID50 (the source's name).
The subject of assay [10] is Canis familiaris. The assay is described as follows: 50% reduction in intraurethral pressure (IUP) in response to hypogastric nerve stimulation or agonist (phenylephrine or norepinephrine) administration in anesthetized dog. The assay is classed as functional. The conditions noted are these: Canis lupus familiaris; read-out: ID50 (the source's name).

As to `COc1ccccc1N1CCN(CCCNc2nccc(C(N)=O)n2)CC1`, in assay [1], the Ratio came out at 31.

With `NC(=O)c1ccnc(NCCCN2CCN(c3cccc(Cl)c3)CC2)n1`, in assay [1], the Ratio is reported as 18.

A word on the IC50: it is the concentration that gives 50% inhibition. In the case of `CC(C)NC(=O)N(C(=O)[C@H]1CCC2C3CCC4N(C)C(=O)C=C[C@]4(C)C3CC[C@@]21C)C(C)C` (some centres undefined), 1220 nM corresponded to half-maximal inhibition in [2] (IC50).

As for `CC(C)N(C(=O)[C@H]1CCC2C3CC=C4C=C(P(=O)(O)O)CC[C@]4(C)C3CC[C@@]21C)C(C)C` (some centres undefined), the Ki in [3] stood at 200 nM; in assay [4] it was 25 nM.

Turning to `CC(C)N(C(=O)[C@H]1CCC2C3CC=C4C=C(CO)CC[C@]4(C)C3CC[C@@]21C)C(C)C` (some centres undefined), the results for the Ki in [3] and in [4] were 5300 nM and 4200 nM, respectively.

The compound `CC(C)NC(=O)N(C(=O)[C@H]1CCC2C3CCC4NC(=O)CC[C@]4(C)C3CC[C@@]21C)C(C)C` (some centres undefined) showed a half-inhibitory concentration (IC50) in assay [2] of 381 nM.

Regarding `CC(C)N(C(=O)[C@H]1CC[C@H]2[C@@H]3CCC4C=C(C(=O)O)CC[C@]4(C)[C@H]3CC[C@]12C)C(C)C` (some centres undefined), the Ki in assay [3] was found to be 70 nM; in assay [4] it was 30 nM. Further, the concentration for half-maximal inhibition (IC50) in [5] came out at 30 nM; in assay [6], 70 nM.

On to `Cc1c(-c2ccccc2)oc2c(C(=O)NCCCN3CCN(c4ccccc4OC(C)C)CC3)cccc2c1=O`, for which the 50% inhibitory concentration (IC50) in [7] was determined as 108 nM; in assay [8] it was 1 nM.

`NC(=O)c1ccnc(NCCCN2CCN(c3ccccc3C3CC3)CC2)n1`: the Ratio in [1] stood at 4.

On to `CN1C(=O)CC[C@]2(C)C3CC[C@@]4(C)C(CC[C@@H]4C(=O)N(C(=O)NC4CCCCC4)C4CCCCC4)C3CCC12` (some centres undefined), for which the IC50 in [2] turned out to be 41 nM.

Turning to `CN1C(=O)CC[C@]2(C)C3CC[C@@]4(C)C(CC[C@@H]4C(=O)N(C(=O)NC(C)(C)C)C(C)(C)C)C3CCC12` (some centres undefined), inhibition in assay [2] was half-maximal at 212 nM (IC50).

With `CC(C)N(C(=O)[C@H]1CCC2C3CC=C4C=C([PH](=O)O)CC[C@]4(C)C3CC[C@@]21C)C(C)C` (some centres undefined), the Ki in assay [3] was determined as 160 nM; in assay [4], 7 nM.

`CC(C)NC(=O)N(C(=O)[C@H]1CCC2C3CCC4NC(=O)C=C[C@]4(C)C3CC[C@@]21C)C(C)C` (some centres undefined) showed a concentration for half-maximal inhibition (IC50) in assay [2] of 1550 nM.

Consider `COc1ccccc1N1CCN(CCCNC(=O)c2cccc3c(=O)c(C)c(-c4ccccc4)oc23)CC1` [UPIDOSIN], for which the ED50 in the assay with Canis familiaris [9] worked out at 0.109 mg/kg; with Canis familiaris [10], 0.004 mg/kg. Besides, the 50% inhibitory concentration (IC50) was 24 nM in [7] and 2 nM in assay [8].
